Results on ten compounds are retold here after US7750184B2, “Vitamin D receptor modulators” (Eli Lilly and Company, priority 2003, dated 2010).

In one series the target is T1, RXR-VDR heterodimer (Homo sapiens, UniProt P11473).
T1 construct: Add the Gal4-RXR-DEF and VP16-VDR-LBD; expressed in transfected cells; host or cells: SaOS-2 cells
T1 sequence (P11473 127-423 limits assumed): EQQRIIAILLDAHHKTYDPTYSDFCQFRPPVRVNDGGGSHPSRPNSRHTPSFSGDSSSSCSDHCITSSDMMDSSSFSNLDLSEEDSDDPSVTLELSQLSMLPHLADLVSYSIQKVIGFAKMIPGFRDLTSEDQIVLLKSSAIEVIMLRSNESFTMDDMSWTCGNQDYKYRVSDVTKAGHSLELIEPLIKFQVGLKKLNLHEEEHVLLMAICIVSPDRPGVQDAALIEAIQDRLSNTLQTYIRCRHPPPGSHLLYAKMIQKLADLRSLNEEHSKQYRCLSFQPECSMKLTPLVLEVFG
T1 sequence (P19793 201-462 partner limits assumed): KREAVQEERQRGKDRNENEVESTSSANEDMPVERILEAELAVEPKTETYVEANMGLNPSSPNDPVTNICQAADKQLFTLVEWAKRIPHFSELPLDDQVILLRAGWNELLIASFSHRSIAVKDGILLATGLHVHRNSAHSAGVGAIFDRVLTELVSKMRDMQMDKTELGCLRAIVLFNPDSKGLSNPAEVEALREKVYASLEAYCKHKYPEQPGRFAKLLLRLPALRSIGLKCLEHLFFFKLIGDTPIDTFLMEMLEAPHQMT
The experiment in a line: RXR-VDR heterodimerization assay (SaOS-2 cells). The following applies: Gal4-RXR-DEF / VP16-VDR-LBD, luciferase reporter. The class given is cell-based. An excerpt:
1. The RXR-VDR heterodimer Assay:
This assay provides the VDR activity of a test compound.
(1) Materials and Method for RXR-VDR Heterodimerization Assay:
Luciferase Assay Reagent: • Use Steady-Glo Luciferase Reagent from Promega (Cat # E2550) Consists of:
Add plain DMEM media to tubes for mixing the DNA
Add the Reporter gene pFR-LUC
Add the Gal4-RXR-DEF and VP16-VDR-LBD
Make a stock solution of the compounds in DMSO
Further dilute in D-MEM (Low Glucose—With out Phenol Red)
Read the plates after drug treatment
Add Steady-Glo Luciferase Reagent mixture/wells
Count each well using a Luminescence counter, Top Count NXT by Packard
(In general: Reporter assays use an easily measured gene product as a stand-in for the process of interest.)

The next series has as its target T2, VDR (Homo sapiens, UniProt P11473).
T2 construct: the receptor expression vector pGal4-VDR-LBD (10 ng); expressed in transfected cells; host or cells: Caco-2 cells
T2 sequence (P11473 127-423 limits assumed): T1 sequence (P11473 127-423 limits assumed)
The experiment in a line: Caco-2 cell co-transfection assay (VDR CTF). The class given is cell-based. The following applies: Caco-2 cells, pGal4-VDR-LBD co-transfection, luciferase reporter. How it is done: 2. The Caco-2 Cell Co-Transfection Assay:
The Caco-2 cell assay is an indicator for the undesirable condition of hypercalcemia. This co-transfection assay is a surrogate assay for in vivo calcemic activity of VDR ligands. […] Preferred assay results are greater than 1000 nM.
(2) Materials and Method for The Caco-2 Cell Assay:
Caco-2 cells, grown in phenol red free, DMEM (Invitrogen, Carlsbad, Calif.) containing 10% charcoal-stripped FCS (Hyclone, Logan, Utah), were transfected with Fugene 6 reagent (Roche Diagnostics, Indianapolis, Ind.). Cells (5000/well) were plated 18 h before transfection in a 96 well plate. The Cells were transfected with Gal4-responsive reporter pFRLuc (150 ng, Stratagene, La Jolla Calif.) and the receptor expression vector pGal4-VDR-LBD (10 ng), along with Fugene 6 reagent (0.2 μl/well). The DNA-Fugene complex was formed by incubating the mixture for 30 min at room temperature. The cells were transfected in triplicate for 5 h, and treated with various concentrations of VDR ligands (form 0.01 nM to 10,000 nM concentration range) 18 h post-transfection. The luciferase activity was quantified using Steady-Glo reagent kit (Promega, Madison, Wis.) as per manufacturer's specifications.

A further series deals with rat osteocalcin promoter. The experiment in a line: OCN (osteocalcin) promoter assay. Type of series: cell-based. The following applies: Rattus norvegicus, 48 h, RG-15 (ROS 17/2.8) cells, 48 hr treatment, luciferase reporter. How it is done: 3. The OCN (osteocalcin) Promoter Assay
The OCN Promoter Assay is an indicator and marker for osteoporosis. […] Preferred assay results are less than 50 nM.
(3) Materials and Method for the OCN Promoter Assay:
The activation of osteocalcin by VDR ligands was evaluated in a rat osteoblast-like cell line RG-15 (ROS 17/2.8) stably expressing rat osteocalcin promoter fused with luciferase reporter gene. […] Confluent RG-15 cells maintained in DMEM/F-12 medium (3:1) containing 5% FBS, 300 μg/ml G418 and at 37° C. under 5% CO2/95% air atmosphere were trypsinized (0.25% trypsin) and plated into white opaque 96-well cell culture plates (25000 cells/well). After 24 hr, cells (in DMEM/F-12 medium+2% FBS) were treated with various concentrations of compounds, dissolved in DMSO. The final DMSO concentration remained at 0.01% (v/v). After 48 hr treatment, the medium was removed, cells were lysed with 50 μl of lysis buffer (From Luciferase reporter assay system, Roche Diagnostics, Indianapolis, Ind.) and assayed for luciferase activity using the Luciferase Reporter Gene Assay kit from Boehringer Mannheim as per manufacturer's specifications.

For series [1] the following is noted: in vivo, po.
Procedure: (§1) The Mouse Hypercalcemia Assay is a six day hypercalcemia test for toxicity and selectivity. Acceptable test results are levels greater than 300 μg/kg/day. Preferred assay results are levels greater than 1000 μg/day.
(§2) (4) Materials and Method for the Mouse Hypercalcemia Assay:
(§3) Weanling, virus—antibody-free, five to six weeks old female DBF mice (Harlan, Indianapolis, Ind.) are used for all the studies. Animals are allowed to acclimate to local vivarium conditions for 2 days. […] The animals then are divided into groups with 4-5 mice per group. Different doses of test compounds prepared in 10% Ethanol and 90% sesame oil are administered to mice orally via gavage for 6 days. 1α-25(OH)2D3 0.5 μg/kg/d was also given to one group of mice as the positive control. […] Raw data of group differences is assessed by analysis of variance (ANOVA) using Fisher's protected least significant difference (PLSD) where the significance level was P<0.05.
A further series concerns KERtr cells. The experiment in a line: Keratinocyte proliferation assay. Type of series: cell-based. As to conditions: Homo sapiens, 72 hr, BrdU incorporation, read-out: Kera. Prolif. IC50. How it is done: 5. The Keratinocte Proliferation Assay
This Assay is indicative for the treatment of psoriasis.
(5) The Keratinocyte Proliferation Assay:
KERtr cells (Human skin keratinocyte transformed with a retrovirus vector, obtained from ATCC) were plated in 96-well flat-bottomed plates (3000 cells/well) in 100 µl keratinocyte serum free medium supplemented with bovine pituitary extract in the absence of EGF (Life Technologies, Rockville, Md.) and incubated at 37° C. for two days. The cells were treated with various concentrations of VDR ligands (ten-fold serial dilution from 10,000 nM to 0.1 nM in triplicate), dissolved in 100 μl keratinocyte serum free medium supplemented with bovine pituitary extract in the absence of EGF and incubated at 37° C. for 72 hr. BrdU (5-bromo-2′-deoxyuridine) incorporation was analyzed as a measure of DNA replication (Cell proliferation ELISA kit, Roche Diagnostics, Indianapolis, Ind.) and absorbance was measured at 405 nm. Potency values (IC50) values were determined as the concentration (nM) of compound that elicited a half-maximal response.

Series [2] can be described thus: Mouse hypercalcemia assay. As to conditions: oral gavage for 6 days, serum ionized calcium 6 hours after last dosing.
Procedure: as §1, §2, §3

Where two headings read alike, the source gives them in different places.

`CCC(CC)(c1ccc(OC[C@@](C)(O)C(C)(C)C)c(C)c1)c1ccc(OS(=O)(=O)C(F)(F)F)c(C)c1` (stereo in doubt) [Ex. 35, trifluoro-methanesulfonic acid 4-{1-ethyl-1-[4-(2-hydroxy-2,3,3-trimethyl-butoxy)-3-methyl-phenyl]-propyl}-2-methyl-phenyl ester]: the EC50 is 0.138 µM on RXR-VDR heterodimer, 616 nM at VDR and 0.0201 µM in the series with rat osteocalcin promoter.
For `C=C1/C(=C\C=C2/CCC[C@]3(C)[C@@H]([C@H](C)CCCC(C)(C)O)CC[C@@H]23)C[C@@H](O)C[C@@H]1O` [AA, 1α,25-dihydroxyvitamin D3], the “Mouse Hypercal” value in series [1] was determined as 0.06 µg/kg/day.
Regarding `CCC(CC)(c1ccc(OC[C@H](O)C(C)(C)C)c(C)c1)c1ccc(OS(C)(=O)=O)c(C)c1` [Ex. 1, 3′-[4-(2-hydroxy-3,3-dimethylbutoxy)-3-methylphenyl]-3′-[4-(methanesulfonyloxy)-3-methylphenyl]pentane], the figures for the EC50 at RXR-VDR heterodimer, at VDR and with rat osteocalcin promoter were 0.00341 µM, 118 nM and 0.00272 µM, respectively.
Turning to `CCC(CC)(c1ccc(OCC(=O)C(C)(C)C)c(C)c1)c1ccc(N(C)S(C)(=O)=O)c(C)c1` [Ex. 18, N-(4-{1-[4-(3,3-Dimethyl-2-oxo-butoxy)-3-methyl-phenyl]-1-ethyl-propyl}-2-methyl-phenyl)-N-methyl-methanesulfonamide], the EC50 was 0.0696 µM on RXR-VDR heterodimer, 485 nM on VDR and 0.00762 µM with rat osteocalcin promoter. Also, in the series on KERtr cells, the IC50 came out at 0.032 µM. Further, the “Mouse Hypercal” value in series [2] was 1500 µg/kg/day.
Turning to `CCC(CC)(c1ccc(NS(=O)(=O)CC)c(C)c1)c1ccc(OCC(=O)C(C)(C)C)c(C)c1` [Ex. 23, N-(4-{1-[4-(3,3-Dimethyl-2-oxo-butoxy)-3-methyl-phenyl]-1-ethyl-propyl}-2-methyl-phenyl)-ethanesulfonamide], the EC50 worked out at 0.000817 µM at RXR-VDR heterodimer, 6.06 nM on VDR and 0.00033 µM in the series with rat osteocalcin promoter. The “Mouse Hypercal” value in series [2] is 500 µg/kg/day.
Consider `CCCS(=O)(=O)N(c1ccc(C(CC)(CC)c2ccc(OCC(=O)C(C)(C)C)c(C)c2)cc1C)S(=O)(=O)CCC` [Ex. 25, N-(4-{1-[4-(3,3-Dimethyl-2-oxo-butoxy)-3-methyl-phenyl]-1-ethyl-propyl}-2-methyl-phenyl)-N,N-bis-1-propanesulfonamide], for which the EC50 at RXR-VDR heterodimer was found to be 0.0473 µM; at VDR, 1290 nM; with rat osteocalcin promoter, 0.0343 µM. In the series on KERtr cells, the IC50 was found to be 0.0146 µM.
As to `CCCS(=O)(=O)Nc1ccc(C(CC)(CC)c2ccc(OCC(=O)C(C)(C)C)c(C)c2)cc1C` [Ex. 26, N-(4-{1-[4-(3,3-Dimethyl-2-oxo-butoxy)-3-methyl-phenyl]-1-ethyl-propyl}-2-methyl-phenyl)-1-propanesulfonamide], the EC50 at RXR-VDR heterodimer turned out to be 0.0057 µM; at VDR, 333 nM; in the series on rat osteocalcin promoter, 0.00369 µM. Further, in the series on KERtr cells, the IC50 came out at 0.0044 µM. The “Mouse Hypercal” value in series [2] was under 1000 µg/kg/day.
With `CCC(CC)(c1ccc(OCC(=O)C(C)(C)C)cc1)c1ccc(OS(C)(=O)=O)c(C)c1` [Ex. 36, 3′-[4-(2-oxo-3,3-dimethylbutoxy)-phenyl]-3′-[4-methylsulfonyloxy-3-methylphenyl]pentane], the results for the EC50 on RXR-VDR heterodimer, on VDR and with rat osteocalcin promoter were 0.0152 µM, 592 nM and 0.0455 µM, respectively. Also, the IC50 in the series with KERtr cells was found to be 0.036 µM. Besides, the “Mouse Hypercal” value in series [2] is over 3000 µg/kg/day.
As to `CCC(CC)(c1ccc(OS(C)(=O)=O)cc1)c1ccc(OCC(=O)C(C)(C)C)c(Cl)c1` [Ex. 42, 3′-[3-chloro-4-(2-oxo-3,3-dimethylbutoxy)phenyl]-3′-[4-(methylsulfonyloxy)phenyl]pentane], the EC50 at RXR-VDR heterodimer is 0.495 µM; on VDR, 728 nM; in the series with rat osteocalcin promoter it was 0.0251 µM. In the series with KERtr cells, the IC50 was 0.009 µM. Also, the “Mouse Hypercal” value in series [2] was under 1000 µg/kg/day.
Turning to `CCC(CC)(c1ccc(OS(=O)(=O)C(F)(F)F)cc1)c1ccc(OCC(O)C(C)(C)C)c(Cl)c1` (stereo not drawn) [Ex. 47, 53, 3′-[3-chloro-4-(2-hydroxy-3.3-dimethylbutoxy)phenyl]-3′-(4-trifluoromethylsulfonyloxyphenyl)pentane], the concentration giving a half-maximal response (EC50) on RXR-VDR heterodimer was found to be 0.0125 µM; on VDR, 431 nM; in the series with rat osteocalcin promoter it was 0.0925 µM. Further, in the series on KERtr cells, the IC50 stood at 0.3 µM.

Usually EC50 stands for the concentration that produces a half-maximal response. Broadly, the IC50 is the concentration at which inhibition is half-maximal.
